{
  "source": "patent US20190256929A1",
  "about": "“PHARMACODYNAMIC BIOMARKERS FOR PERSONALIZED CANCER CARE USING EPIGENETIC MODIFYING AGENTS” (ORYZON GENOMICS, S.A., priority 2016, published 2019)",
  "tested_on": "patient derived xenograft (PDX) small cell lung cancer models, ex vivo cultures",
  "assay": "qRT-PCR of PD markers Notch1 and ASCL1 in ex vivo cultures of SCLC patient derived xenograft (PDX) models",
  "assay_type": "cell-based, human",
  "details": "1 nM, 120 hours",
  "procedure": "To confirm the results obtained for the panel for small cell lung cancer cell lines, changes in PD markers Notch1 and ASCL1 were evaluated in a panel of patient derived xenograft (PDX) small cell lung cancer models. The initiation and characterization of PDX models LX48, LX108, LX110, LX33 have been described previously (Hann, C. L., et al. 2008, Cancer Research. 68, 2321-2328; Poirier et al. (2013). J. Natl. Cancer Inst. 105, 1059-1065; Leong et al. PLoS One. 2014; 9:e106862). PDX models, FHSC04 and FHSC14 were generated from blood samples obtained from patients with extensive-stage SCLC, following the methodology described by the Dive lab (Hodgkinson et al. 2014 Nat Med August 20(8), 897-903). Ex vivo cultures were treated with 1 nM (trans)-N1-((1R,2S)-2-Phenylcyclopropyl)cyclohexane-1,4-diamine in 96 well plates (10,000 cells/well) for 120 hours. RNA was extracted in TRIzol (Invitrogen) and isolated according to the manufacturer's protocol. cDNA was generated using the iScript synthesis kit (Bio-Rad) according to the manufacturer's protocol. qPCR experiments were run on a Biorad qPCR instrument (CFX384). Data were normalized to GAPDH. FIG. 12 contains the results of the qRT-PCR using the following primers.",
  "data": [
    {"compound": "N[C@H]1CC[C@H](N[C@@H]2C[C@H]2c2ccccc2)CC1", "note": "[RG6016, (trans)-N1-((1R,2S)-2-phenylcyclopropyl)cyclohexane-1,4-diamine]", "values": [
      {"measurement": "Regulation of ASCL1 (FIG. 12)", "value": "down"},
      {"measurement": "Regulation of NOTCH1 (FIG. 12)", "value": "up"}
    ]}
  ]
}
